Consider two molecules from paper PMC9454089, “Structural and Mechanistic Evidence for Calcium Interacting Sites in the HIV Transmembrane Protein gp41 Involved in Membrane Fusion” (Biochemistry, 2022).

A word on the IC50: it is the concentration at which inhibition is half-maximal.

For the assay, the system named is gp41 mediated cell–cell fusion (HXB2 strain HIV-1 Env; HL2-3 / TZM-bl cells). Type of assay: cell-based. Particulars: Figure 3, TZM-bl target and HL2/3 effector cells, 6 h coculture at 37 °C, luciferase, average ± S.E.M., n = 3, read-out: IC50, inhibition of cell–cell fusion. On the procedure: Effector cells were the Env expressing cells HL2-3, a HeLa-derived cell line which constitutively expresses the HXB2 strain of the HIV-1 Env glycoprotein along the Tat protein, and as target cells, TZM-bl cells were used. The fusion of HL2-3 cells with TZM-bl cells was assessed through luciferase expression. The TZM-bl cells were seeded at 2 × 10^4 cells/well overnight in 96-well plates. The medium was then aspirated from each well and replaced with serum-free DMEM containing 40 μg/mL DEAE-dextran. […] Upon addition of the peptides, the HL2-3 cells were added to the TZM-bl cells in serum-free DMEM containing 40 μg/mL DEAE-dextran at a 1:1 cell ratio. The cells were cocultured at 37 °C for 6 h to allow the fusion to occur. Luciferase activity was analyzed using the Steady-Glo luciferase assay kit (Promega). Fitting of the data points was performed according to the following equation, derived from Hills’ equation [drawing 1]
For the fitting, we uploaded the X and Y values of the data into a nonlinear least-square regression (curve fitter) program that provided the IC50 value (parameter A).
A one-tailed Student’s T-test was used. P < 0.05 was considered significant. Analyses were done using GraphPad Prism (data analysis software) version 6.05 (*P ≤ 0.05, **P ≤ 0.01, and ***P ≤ 0.001).

Like-named read-outs stand apart in the source and are kept apart here. Residues, ends and D or L forms follow the SMILES beside them.

As to `CC[C@H](C)[C@H](NC(=O)CNC(=O)[C@H](Cc1c[nH]c2ccccc12)NC(=O)[C@@H](NC(=O)[C@@H](NC(=O)[C@H](CC(C)C)NC(=O)[C@H](CCC(N)=O)NC(=O)[C@H](CC(C)C)NC(=O)[C@H](CC(C)C)NC(=O)[C@H](C)NC(=O)[C@H](CCC(N)=O)NC(=O)[C@H](CCC(N)=O)NC(=O)[C@H](C)NC(=O)[C@H](C)NC(=O)[C@@H](NC(=O)[C@H](C)NC(=O)[C@H](C)NC(=O)[C@H](CC(C)C)NC(=O)[C@H](CC(C)C)NC(=O)[C@H](CC(N)=O)NC(=O)[C@H](CC(N)=O)NC(=O)[C@H](CCC(N)=O)NC(=O)[C@H](CCC(N)=O)NC(=O)[C@H](CCC(N)=O)NC(=O)[C@@H](NC(=O)[C@@H](NC(=O)CNC(=O)[C@@H](N)CO)[C@@H](C)CC)C(C)C)[C@@H](C)CC)[C@@H](C)O)C(C)C)C(=O)N[C@@H](CCCCN)C(=O)N[C@@H](CCC(N)=O)C(=O)N[C@@H](CC(C)C)C(=O)N[C@@H](CCC(N)=O)C(=O)N[C@@H](C)C(=O)N[C@@H](CCCNC(=N)N)C(=O)N[C@H](C(=O)N[C@@H](CC(C)C)C(N)=O)[C@@H](C)CC` [N36 3A] (H-SGIVQQQNNLLAAIAAQQALLQLTVWGIKQLQARIL-NH2), the IC50 was 2980 ± 1070 nM (0 mM Ca2+), 262 ± 180 nM (2 mM Ca2+) and 800 ± 140 nM (5 mM Ca2+).

With `CC[C@H](C)[C@H](NC(=O)[C@H](CCC(=O)O)NC(=O)[C@H](CCCNC(=N)N)NC(=O)[C@H](C)NC(=O)[C@H](Cc1c[nH]c2ccccc12)NC(=O)[C@H](CCC(=O)O)NC(=O)[C@H](CCSC)NC(=O)[C@@H](N)Cc1c[nH]c2ccccc12)C(=O)N[C@@H](CC(N)=O)C(=O)N[C@@H](CC(N)=O)C(=O)N[C@@H](Cc1ccc(O)cc1)C(=O)N[C@H](C(=O)N[C@@H](CO)C(=O)N[C@@H](CC(C)C)C(=O)N[C@H](C(=O)N[C@@H](Cc1c[nH]cn1)C(=O)N[C@@H](CO)C(=O)N[C@@H](CC(C)C)C(=O)N[C@H](C(=O)N[C@@H](CCC(=O)O)C(=O)N[C@@H](CCC(=O)O)C(=O)N[C@@H](CO)C(=O)N[C@@H](CCC(N)=O)C(=O)N[C@@H](CC(N)=O)C(=O)N[C@@H](CCC(N)=O)C(=O)N[C@@H](CCC(N)=O)C(=O)N[C@@H](CCC(=O)O)C(=O)N[C@@H](CCCCN)C(=O)N[C@@H](CC(N)=O)C(=O)N[C@@H](CCC(=O)O)C(=O)N[C@@H](CCC(N)=O)C(=O)N[C@@H](CCC(=O)O)C(=O)N[C@@H](CC(C)C)C(=O)N[C@@H](CC(C)C)C(N)=O)[C@@H](C)CC)[C@@H](C)CC)[C@@H](C)O` [C34 D-A], the IC50 by setting is: (0 mM Ca2+) 0.6 ± 0.4 nM; (2 mM Ca2+) 1.5 ± 0.7 nM.
